Test results reported in the NIST ThermoML archive (doi:10.1021/je2003012).

Test: relative permittivity at various frequencies (dimensionless); wn = mass fraction of the nth substance listed
Details: Liquid, direct capacitance:P =

O=C=O [carbon dioxide] + CCO
Details	relative permittivity
303.4 K, 10000 kPa, w2 = 0.05	1.83
303.4 K, 11400 kPa, w2 = 0.05	1.86
303.4 K, 13200 kPa, w2 = 0.05	1.89
303.4 K, 13600 kPa, w2 = 0.05	1.9
303.4 K, 14800 kPa, w2 = 0.05	1.91
303.4 K, 15300 kPa, w2 = 0.05	1.92
303.4 K, 15800 kPa, w2 = 0.05	1.92
303.4 K, 16000 kPa, w2 = 0.05	1.93
303.4 K, 17500 kPa, w2 = 0.05	1.94
303.4 K, 19000 kPa, w2 = 0.05	1.95
303.4 K, 19200 kPa, w2 = 0.05	1.95
303.4 K, 21000 kPa, w2 = 0.05	1.97
303.4 K, 21300 kPa, w2 = 0.05	1.97
303.4 K, 23000 kPa, w2 = 0.05	1.98
303.4 K, 23300 kPa, w2 = 0.05	1.99
303.4 K, 25100 kPa, w2 = 0.05	2
303.4 K, 25400 kPa, w2 = 0.05	2
303.4 K, 26700 kPa, w2 = 0.05	2.01
303.4 K, 27200 kPa, w2 = 0.05	2.01
303.4 K, 28900 kPa, w2 = 0.05	2.02
303.4 K, 29600 kPa, w2 = 0.05	2.03
303.7 K, 7200 kPa, w2 = 0.212	3.15
303.7 K, 7900 kPa, w2 = 0.212	3.18
303.7 K, 8800 kPa, w2 = 0.212	3.22
303.7 K, 9800 kPa, w2 = 0.1	2.24
303.7 K, 9800 kPa, w2 = 0.212	3.25
303.7 K, 11000 kPa, w2 = 0.212	3.29
303.7 K, 11300 kPa, w2 = 0.1	2.27
303.7 K, 11400 kPa, w2 = 0.1	2.28
303.7 K, 13000 kPa, w2 = 0.212	3.35
303.7 K, 13100 kPa, w2 = 0.1	2.3
303.7 K, 14000 kPa, w2 = 0.1	2.32
303.7 K, 14900 kPa, w2 = 0.1	2.34
303.7 K, 14900 kPa, w2 = 0.212	3.4
303.7 K, 15000 kPa, w2 = 0.212	3.4
303.7 K, 16000 kPa, w2 = 0.1	2.36
303.7 K, 16500 kPa, w2 = 0.212	3.44
303.7 K, 16700 kPa, w2 = 0.212	3.45
303.7 K, 16900 kPa, w2 = 0.1	2.37
303.7 K, 17300 kPa, w2 = 0.212	3.46
303.7 K, 17800 kPa, w2 = 0.1	2.38
303.7 K, 18000 kPa, w2 = 0.212	3.47
303.7 K, 18800 kPa, w2 = 0.212	3.49
303.7 K, 19100 kPa, w2 = 0.1	2.4
303.7 K, 19900 kPa, w2 = 0.1	2.41
303.7 K, 20200 kPa, w2 = 0.212	3.52
303.7 K, 20400 kPa, w2 = 0.1	2.42
303.7 K, 21400 kPa, w2 = 0.1	2.43
303.7 K, 21600 kPa, w2 = 0.212	3.54
303.7 K, 21800 kPa, w2 = 0.212	3.55
303.7 K, 21900 kPa, w2 = 0.1	2.43
303.7 K, 23100 kPa, w2 = 0.1	2.45
303.7 K, 23300 kPa, w2 = 0.212	3.57
303.7 K, 23900 kPa, w2 = 0.212	3.58
303.7 K, 24100 kPa, w2 = 0.1	2.46
303.7 K, 24200 kPa, w2 = 0.1	2.46
303.7 K, 25300 kPa, w2 = 0.1	2.47
303.7 K, 25400 kPa, w2 = 0.212	3.61
303.7 K, 25500 kPa, w2 = 0.1	2.48
303.7 K, 26200 kPa, w2 = 0.212	3.62
303.7 K, 26500 kPa, w2 = 0.1	2.48
303.7 K, 27200 kPa, w2 = 0.212	3.64
303.7 K, 27400 kPa, w2 = 0.1	2.49
303.7 K, 28000 kPa, w2 = 0.1	2.5
303.7 K, 28400 kPa, w2 = 0.1	2.5
303.7 K, 28400 kPa, w2 = 0.212	3.66
303.7 K, 29400 kPa, w2 = 0.1	2.51
303.7 K, 30200 kPa, w2 = 0.212	3.68
304.9 K, 16100 kPa, w2 = 0.152	2.67
304.9 K, 16800 kPa, w2 = 0.152	2.68
304.9 K, 17300 kPa, w2 = 0.152	2.68
304.9 K, 17800 kPa, w2 = 0.152	2.69
304.9 K, 18800 kPa, w2 = 0.152	2.7
304.9 K, 19400 kPa, w2 = 0.152	2.72
304.9 K, 20100 kPa, w2 = 0.152	2.73
304.9 K, 20800 kPa, w2 = 0.152	2.74
304.9 K, 21900 kPa, w2 = 0.152	2.75
304.9 K, 22800 kPa, w2 = 0.152	2.76
304.9 K, 23700 kPa, w2 = 0.152	2.77
304.9 K, 24300 kPa, w2 = 0.152	2.79
304.9 K, 24700 kPa, w2 = 0.152	2.78
304.9 K, 25500 kPa, w2 = 0.152	2.79
304.9 K, 26400 kPa, w2 = 0.152	2.81
304.9 K, 26500 kPa, w2 = 0.152	2.81
304.9 K, 27200 kPa, w2 = 0.152	2.82
304.9 K, 28200 kPa, w2 = 0.152	2.83
304.9 K, 29100 kPa, w2 = 0.152	2.84
